Data taken from ChEMBL document CHEMBL3045786, “Insect antifeedant activity of tetranortriterpenoids from the Rutales. A perusal of structural relations” (2002).

Tests used:
[1] = system: Spodoptera litura; assay: Antifeedant activity against larvae of Spodoptera litura in castor leaves relative to control; assay type: functional
[2] = system: Spodoptera litura; assay: Feeding index against larvae of Spodoptera litura in castor leaves =

Row | SMILES | AFI [1] [%] | PFI [2] [%]
1 | COC(=O)C[C@H]1[C@]2(C)C3=C(C)[C@H](c4ccoc4)C[C@H]3O[C@@H]2[C@@H]2OC[C@]3(C)[C@H](O)C[C@H](OC(=O)C=C(C)C)[C@@]1(C)[C@@H]23 | 52.1 | 
2 | COC(=O)C[C@H]1[C@]2(C)C3=C(C)[C@H](c4ccoc4)C[C@H]3O[C@@H]2[C@H](O)[C@@H]2[C@]1(C)C(=O)C=C[C@@]2(C)C(=O)OC [DEACETYLNIMBIN] |  | 34.7
3 | CC(=O)O[C@@H]1C[C@H]2C(C)(C)C(=O)C=C[C@]2(C)[C@H]2CC[C@]3(C)C(=CC[C@H]3c3ccoc3)[C@@]21C [AZADIRONE] |  | 48.3
4 | CC(=O)O[C@@H]1C[C@H]2C(C)(C)CC(=O)C=C[C@]2(C)[C@H]2CC[C@]3(C)C(=CC[C@H]3c3ccoc3)[C@@]21C [HOMOAZADIRADIONE] |  | 60
5 | CC(=O)O[C@@H]1C[C@H]2C(C)(C)C(=O)C=C[C@]2(C)[C@H]2CC[C@]3(C)C(=CC(=O)[C@H]3c3ccoc3)[C@@]21C [AZADIRADIONE] |  | 35.5
6 | CC1(C)C(=O)[C@H]2O[C@H]2[C@@]2(C)C1=C(O)C(=O)[C@]1(C)[C@@H]2CC[C@@]2(C)[C@H](c3ccoc3)C[C@H]3O[C@]321 [CEDRELONE EPOXIDE] |  | 43.5
7 | CC(=O)O[C@@H]1[C@H](O)[C@H]2C(C)(C)C(=O)C=C[C@]2(C)[C@H]2CC[C@@]3(C)[C@H](C4=CC(O)OC4=O)C[C@@H]4O[C@@]43[C@]12C (stereo partly specified) [NIMONOLIDE] |  | 21.3
8 | C/C=C(\C)C(=O)O[C@H]1C[C@@H](O)[C@@]2(C)CO[C@H]3[C@H]4O[C@@H]5C[C@@H](C6=CC(O)OC6=O)C(C)=C5[C@@]4(C)[C@H](CC(=O)OC)[C@]1(C)[C@@H]32 (stereo partly specified) [DESACETYL SALANNOLIDE] |  | 28.44
9 | C/C=C(\C)C(=O)O[C@H]1C[C@@H](OC(C)=O)[C@@]2(C)CO[C@H]3[C@H]4O[C@@H]5C[C@@H](C6=CC(=O)OC6O)C(C)=C5[C@@]4(C)[C@H](CC(=O)OC)[C@]1(C)[C@@H]32 (stereo partly specified) [SALANNIN PP] |  | 25.1
10 | C/C=C(\C)C(=O)O[C@H]1C[C@@H](OC(C)=O)[C@@]2(C(=O)OC)CO[C@H]3[C@@H](O)[C@@](C)([C@]45O[C@@]4(C)[C@H]4C[C@@H]5O[C@@H]5OC=C[C@@]54O)[C@@H]4[C@H](O)OC[C@@]14[C@@H]32 [AZADIRACHTIN H] |  | 30.5
11 | C/C=C(\C)C(=O)O[C@H]1C[C@@H](O)[C@@]2(C)CO[C@H]3[C@H]4O[C@@H]5C[C@@H](c6ccoc6)C(C)=C5[C@@]4(C)[C@H](CC(=O)OC)[C@]1(C)[C@@H]32 [DESACETYL SALANNIN] |  | 44.67
12 | CC(=O)O[C@@H]1[C@H](O)[C@H]2C(C)(C)C(=O)C=C[C@]2(C)[C@H]2CC[C@]3(C)C(=CC[C@H]3c3ccoc3)[C@]12C [NIMONOL] |  | 47.3
13 | C/C=C(\C)C(=O)O[C@H]1C[C@@H](OC(C)=O)[C@@]2(C)CO[C@@H]3[C@@H](O)[C@@](C)([C@]45O[C@@]4(C)[C@H]4C[C@@H]5O[C@@H]5OC=C[C@@]54O)[C@H]4[C@]1(CO[C@]4(O)C(=O)OC)[C@@H]32 [AZADIRACHTIN-D] |  | 28.9
14 | CC(=O)O[C@@H]1C[C@H]2C(C)(C)C(=O)C=C[C@]2(C)[C@H]2CC[C@@]3(C)[C@H](c4ccoc4)OC(=O)[C@H]4O[C@]43[C@@]21C [GEDUNIN] |  | 37.3
15 | CC1(C)C(=O)C=C[C@@]2(C)C1=C(O)C(=O)[C@]1(C)[C@@H]2CC[C@@]2(C)[C@H](c3ccoc3)C[C@H]3O[C@]321 [CEDRELONE] |  | 51.5
16 | C/C=C(\C)C(=O)O[C@H]1C[C@@H](OC(C)=O)[C@@]2(C(=O)OC)CO[C@H]3[C@@H](O)[C@@](C)([C@]45O[C@@]4(C)[C@H]4C[C@@H]5O[C@@H]5OC=C[C@@]54O)[C@H]4[C@]1(CO[C@]4(O)C(=O)OC)[C@@H]32 [AZADIRACTIN] |  | 27.5
17 | C/C=C(\C)C(=O)O[C@H]1C[C@@H](OC(C)=O)[C@@]2(C)CO[C@H]3[C@H]4O[C@@H]5C[C@@H](C6=CCOC6=O)C(C)=C5[C@@]4(C)[C@H](CC(=O)OC)[C@]1(C)[C@@H]32 [SALANNOBUTYROLACTONE] |  | 46.3
18 | CC1(C)C(=O)C=C[C@@]2(C)C1=C(O)C(=O)[C@]1(C)[C@@H]2CC[C@@]2(C)[C@H](C3=CC(O)OC3=O)C[C@H]3O[C@]321 (stereo partly specified) [CEDRELONE PP-OH] |  | 22.4
19 | CC(=O)O[C@@H]1C[C@@H](O)[C@@]2(C)[C@@H](C[C@@H](OC(C)=O)[C@@]3(C)C4=CC[C@@H](C5=C[C@@H](CC(C)C)O[C@@H]5O)[C@]4(C)C[C@@H](O)[C@@H]32)C1(C)C [3R-ACETOXY-1R-HYDROXYAZADIRACHTOL] |  | 4.2
20 | C/C=C(/C)C(=O)O[C@H]1C[C@@H](OC(C)=O)[C@@]2(C)CO[C@H]3[C@H]4O[C@@H]5C[C@@H](c6ccoc6)C(C)=C5[C@@]4(C)[C@H](CC(=O)OC)[C@]1(C)[C@@H]32 [SALANNIN] |  | 36.3
21 | C/C=C(\C)C(=O)O[C@H]1C[C@@H](OC(C)=O)[C@@]2(C)CO[C@H]3[C@H]4O[C@@H]5C[C@@H](C6=CC(O)OC6=O)C(C)=C5[C@@]4(C)[C@H](CC(=O)OC)[C@]1(C)[C@@H]32 (stereo partly specified) [SALANNOLIDE] |  | 26.3
